Legend:
MDA-MB-231 = test: Antiproliferative activity against human MDA-MB-231 cells after 96 hrs by MTT assay; format: functional; conditions: MDA-MB-231, 96 h
MCF7 [1] = test: Antiproliferative activity against human MCF7 cells after 96 hrs by MTT assay; format: functional; conditions: MCF7, 96 h
NCI/ADR-RES [2] = test: Antiproliferative activity against human MCF7/ADR cells after 96 hrs by MTT assay; format: functional
[3] = Selectivity ratio of GI50 for human MCF7 cells to GI50 for human MCF7/ADR cells; format: functional
MCF7 [4] = test: Cell cycle arrest in human MCF7 cells assessed as accumulation at sub-G1 phase at 0.5 uM after 24 hrs by propidium iodide staining based flow cytometry (reference value: 1.78%); format: functional
MCF7 [5] = test: Cell cycle arrest in human MCF7 cells assessed as accumulation at G0/G1 phase at 0.5 uM after 24 hrs by propidium iodide staining based flow cytometry (reference value: 57.83%); format: functional
MCF7 [6] = test: Cell cycle arrest in human MCF7 cells assessed as accumulation at G2/M phase at 0.5 uM after 24 hrs by propidium iodide staining based flow cytometry (reference value: 22.57%); format: functional
MCF7 [7] = test: Cell cycle arrest in human MCF7 cells assessed as accumulation at G0/G1 phase at 1 uM after 24 hrs by propidium iodide staining based flow cytometry (reference value: 57.83%); format: functional
MCF7 [8] = test: Cell cycle arrest in human MCF7 cells assessed as accumulation at S-phase at 1 uM after 24 hrs by propidium iodide staining based flow cytometry (reference value: 18.24%); format: functional
MCF7 [9] = test: Cell cycle arrest in human MCF7 cells assessed as accumulation at sub-G1 phase at 0.5 uM after 48 hrs by propidium iodide staining based flow cytometry (reference value: 0.18%); format: functional
MCF7 [10] = test: Cell cycle arrest in human MCF7 cells assessed as accumulation at G0/G1 phase at 0.5 uM after 48 hrs by propidium iodide staining based flow cytometry (reference value: 57.21%); format: functional
MCF7 [11] = test: Cell cycle arrest in human MCF7 cells assessed as accumulation at G2/M phase at 0.5 uM after 48 hrs by propidium iodide staining based flow cytometry (reference value: 24.26%); format: functional
MCF7 [12] = test: Cell cycle arrest in human MCF7 cells assessed as accumulation at G0/G1 phase at 1 uM after 48 hrs by propidium iodide staining based flow cytometry (reference value: 57.21%); format: functional
MCF7 [13] = test: Cell cycle arrest in human MCF7 cells assessed as accumulation at S-phase at 1 uM after 48 hrs by propidium iodide staining based flow cytometry (reference value: 18.39%); format: functional
MCF7 [14] = test: Cell cycle arrest in human MCF7 cells assessed as accumulation at G2/M phase at 1 uM after 48 hrs by propidium iodide staining based flow cytometry (reference value: 24.26%); format: functional
NCI/ADR-RES [15] = test: Cell cycle arrest in human MCF7/ADR cells assessed as accumulation at sub-G1 phase at 0.5 uM after 24 hrs by propidium iodide staining based flow cytometry (reference value: 1.08%); format: functional
NCI/ADR-RES [16] = test: Cell cycle arrest in human MCF7/ADR cells assessed as accumulation at G0/G1 phase at 0.5 uM after 24 hrs by propidium iodide staining based flow cytometry (reference value: 45.98%); format: functional
NCI/ADR-RES [17] = test: Cell cycle arrest in human MCF7/ADR cells assessed as accumulation at S-phase at 0.5 uM after 24 hrs by propidium iodide staining based flow cytometry (reference value: 25.87%); format: functional
NCI/ADR-RES [18] = test: Cell cycle arrest in human MCF7/ADR cells assessed as accumulation at sub-G1 phase at 1 uM after 24 hrs by propidium iodide staining based flow cytometry (reference value: 1.08%); format: functional
NCI/ADR-RES [19] = test: Cell cycle arrest in human MCF7/ADR cells assessed as accumulation at S-phase at 1 uM after 24 hrs by propidium iodide staining based flow cytometry (reference value: 25.87%); format: functional
NCI/ADR-RES [20] = test: Cell cycle arrest in human MCF7/ADR cells assessed as accumulation at G2/M phase at 1 uM after 24 hrs by propidium iodide staining based flow cytometry (reference value: 27.75%); format: functional
NCI/ADR-RES [21] = test: Cell cycle arrest in human MCF7/ADR cells assessed as accumulation at sub-G1 phase at 0.5 uM after 48 hrs by propidium iodide staining based flow cytometry (reference value: 0.25%); format: functional
NCI/ADR-RES [22] = test: Cell cycle arrest in human MCF7/ADR cells assessed as accumulation at G0/G1 phase at 0.5 uM after 48 hrs by propidium iodide staining based flow cytometry (reference value: 38.76%); format: functional
NCI/ADR-RES [23] = test: Cell cycle arrest in human MCF7/ADR cells assessed as accumulation at S-phase at 0.5 uM after 48 hrs by propidium iodide staining based flow cytometry (reference value: 29.45%); format: functional
NCI/ADR-RES [24] = test: Cell cycle arrest in human MCF7/ADR cells assessed as accumulation at sub-G1 phase at 1 uM after 48 hrs by propidium iodide staining based flow cytometry (reference value: 0.25%); format: functional
NCI/ADR-RES [25] = test: Cell cycle arrest in human MCF7/ADR cells assessed as accumulation at G0/G1 phase at 1 uM after 48 hrs by propidium iodide staining based flow cytometry (reference value: 38.76%); format: functional
NCI/ADR-RES [26] = test: Cell cycle arrest in human MCF7/ADR cells assessed as accumulation at S-phase at 1 uM after 48 hrs by propidium iodide staining based flow cytometry (reference value: 29.45%); format: functional
NCI/ADR-RES [27] = test: Cell cycle arrest in human MCF7/ADR cells assessed as accumulation at G2/M phase at 1 uM after 48 hrs by propidium iodide staining based flow cytometry (reference value: 31.94%); format: functional
[28] = Apparent terminal half life in Sprague-Dawley rat at 10 mg/kg, iv administered as single dose by LC-MS/MS analysis; format: ADME, organism-based; conditions: in vivo, read-out: betat1/2(app) (converted)
[29] = Apparent volume of distribution in Sprague-Dawley rat at 10 mg/kg, iv administered as single dose by LC-MS/MS analysis; format: ADME, organism-based; conditions: in vivo, read-out: Vz
[30] = Apparent clearance in Sprague-Dawley rat at 10 mg/kg, iv administered as single dose by LC-MS/MS analysis; format: ADME, organism-based; conditions: in vivo, read-out: CL(app) (converted)
[31] = MRT (0 to infinity) in Sprague-Dawley rat at 10 mg/kg, iv administered as single dose by LC-MS/MS analysis; format: ADME, organism-based; conditions: in vivo
[32] = Plasma concentration in Sprague-Dawley rat at 10 mg/kg, iv administered as single dose measured at 0.25 hrs post dosing by LC-MS/MS analysis; format: ADME, organism-based
[33] = Plasma concentration in Sprague-Dawley rat at 10 mg/kg, iv administered as single dose measured at 1 hr post dosing by LC-MS/MS analysis; format: ADME, organism-based
[34] = Plasma concentration in Sprague-Dawley rat at 10 mg/kg, iv administered as single dose measured at 2 hrs post dosing by LC-MS/MS analysis; format: ADME, organism-based
[35] = Plasma concentration in Sprague-Dawley rat at 10 mg/kg, iv administered as single dose measured at 4 hrs post dosing by LC-MS/MS analysis; format: ADME, organism-based
[36] = Plasma concentration in Sprague-Dawley rat at 10 mg/kg, iv administered as single dose measured at 24 hrs post dosing by LC-MS/MS analysis; format: ADME, organism-based

## C[C@H]1[C@@H](Oc2ccc(-c3cc(-c4ccccc4)[nH]n3)cc2)O[C@@H]2O[C@@]3(C)CC[C@H]4[C@H](C)CC[C@@H]1[C@@]24OO3
MDA-MB-231
  GI50: 240 nM
MCF7 [1]
  GI50: 210 nM
NCI/ADR-RES [2]
  GI50: 18 nM
[3]
  RatioGI50: 11.7
MCF7 [4]
  Activity: 0.44%
MCF7 [5]
  Activity: 70.95%
MCF7 [6]
  Activity: 16.94%
MCF7 [7]
  Activity: 72.58%
MCF7 [8]
  Activity: 10.13%
MCF7 [9]
  Activity: 0.38%
MCF7 [10]
  Activity: 83.54%
MCF7 [11]
  Activity: 17.38%
MCF7 [12]
  Activity: 85.04%
MCF7 [13]
  Activity: 2.14%
MCF7 [14]
  Activity: 11.53%
NCI/ADR-RES [15]
  Activity: 1.89%
NCI/ADR-RES [16]
  Activity: 50.52%
NCI/ADR-RES [17]
  Activity: 21.64%
NCI/ADR-RES [18]
  Activity: 4.73%
NCI/ADR-RES [19]
  Activity: 9.75%
NCI/ADR-RES [20]
  Activity: 23.83%
NCI/ADR-RES [21]
  Activity: 2.81%
NCI/ADR-RES [22]
  Activity: 46.94%
NCI/ADR-RES [23]
  Activity: 20.41%
NCI/ADR-RES [24]
  Activity: 10.99%
NCI/ADR-RES [25]
  Activity: 56.01%
NCI/ADR-RES [26]
  Activity: 9.72%
NCI/ADR-RES [27]
  Activity: 23.47%
[28]
  half-life: 3.58 h
[29]
  Vd: 18 L/kg
[30]
  clearance: 57.7 mL/min/kg
[31]
  MRT inf: 2.28 h
[32]
  concentration at 0.25 h: 1720 ng/mL
[33]
  concentration at 1 h: 436 ng/mL
[34]
  concentration at 2 h: 227 ng/mL
[35]
  concentration at 4 h: 147 ng/mL
[36]
  concentration at 24 h: 2.65 ng/mL

— ChEMBL document CHEMBL4251553, “Synthesis, anticancer evaluation and pharmacokinetic study of novel 10-O-phenyl ethers of dihydroartemisinin” (Eur J Med Chem, 2017)
